Results on six compounds are retold here after patent publication US8912220B2 (priority 2009, dated 2014).

The target of the first assay is human 5-HT2C(VSV) (Homo sapiens, UniProt P28335, I156V/I160V/N158S). Description: cell-based.
Chain of human 5-HT2C(VSV) (P28335 33-458 I156V/N158S/I160V limits assumed): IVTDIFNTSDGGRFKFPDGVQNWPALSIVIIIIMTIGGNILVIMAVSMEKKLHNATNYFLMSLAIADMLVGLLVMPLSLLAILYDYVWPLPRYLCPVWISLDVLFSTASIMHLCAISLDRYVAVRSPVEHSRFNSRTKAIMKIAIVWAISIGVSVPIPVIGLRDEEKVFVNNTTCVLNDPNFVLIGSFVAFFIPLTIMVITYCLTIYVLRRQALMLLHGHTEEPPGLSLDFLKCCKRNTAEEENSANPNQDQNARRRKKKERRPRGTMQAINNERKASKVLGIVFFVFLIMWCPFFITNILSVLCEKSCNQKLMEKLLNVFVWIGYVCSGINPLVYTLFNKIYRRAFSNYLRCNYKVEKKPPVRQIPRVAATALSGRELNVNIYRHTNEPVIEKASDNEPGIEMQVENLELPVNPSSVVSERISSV
Conditions: not given
The term EC50 denotes the midpoint of the concentration-response curve. Lower therefore signals higher potency in that assay. Compound `CCn1cc(CCN(C)C)c2c(OCc3ccncc3)cc(F)cc21` [1-18b, 2-(1-ethyl-6-fluoro-4-(pyridin-4-ylmethoxy)-1H-indol-3-yl)-N,N-dimethylethanamine] registered an EC50 of 0.5 to 10 µM.

As for `CCn1cc(CCNCC(C)c2ccccc2)c2c(O)cc(F)cc21` (stereo not drawn) [39-6, 1-ethyl-6-fluoro-3-(2-(2-phenylpropylamino)ethyl)-1H-indol-4-ol], the EC50 is 0.001 to 0.5 µM.

As to `CCn1cc(CCN(C)C)c2c(Oc3ccccc3N)ccc(F)c21` [2-3, 2-(3-(2-(dimethylamino)ethyl)-1-ethyl-7-fluoro-1H-indol-4-yloxy)aniline], the EC50 lay within 0.001 to 0.5 µM.

Compound `CCOc1c(F)ccc2c1c(CCNCCc1ccc3c(c1)OCO3)cn2C` [30-26, 2-(benzo[d][1,3]dioxol-5-yl)-N-(2-(4-ethoxy-5-fluoro-1-methyl-1H-indol-3-yl)ethyl)ethanamine] registered a 50% effective concentration (EC50) of 0.001 to 0.5 µM.

For the compound `Cc1cccc(CNCCc2cn(C)c3ccc(F)c(O)c23)n1` [17-20, 5-fluoro-1-methyl-3-(2-(((6-methylpyridin-2-yl)methyl)amino)ethyl)-1H-indol-4-ol], the EC50 is less than 10 µM.

The target in another assay is T1, human 5-HT6 (Homo sapiens, UniProt P50406).
T1 construct: expressed in transfected cells
T1 sequence (P50406 whole entry): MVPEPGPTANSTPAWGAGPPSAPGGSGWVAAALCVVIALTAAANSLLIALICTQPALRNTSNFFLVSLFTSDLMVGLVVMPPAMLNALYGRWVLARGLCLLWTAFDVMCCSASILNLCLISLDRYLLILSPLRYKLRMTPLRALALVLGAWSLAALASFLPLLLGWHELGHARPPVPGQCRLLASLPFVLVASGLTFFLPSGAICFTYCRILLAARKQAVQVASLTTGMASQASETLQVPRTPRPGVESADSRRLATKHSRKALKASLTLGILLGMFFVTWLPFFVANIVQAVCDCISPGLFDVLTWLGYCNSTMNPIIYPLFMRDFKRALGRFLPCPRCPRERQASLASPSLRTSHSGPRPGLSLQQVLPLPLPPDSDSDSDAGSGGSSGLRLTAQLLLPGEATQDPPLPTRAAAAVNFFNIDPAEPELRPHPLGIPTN
Description: cAMP agonist and antagonist mode at 5-HT6 (HTRF, 1321N1 cells). The class given is cell-based. As to conditions: reference agonist, used in antagonist mode. The procedure:
For assessment of 5-HT6 activity, 1321N1 cells stably expressing human 5-HT6 were grown to ˜90% confluence in a humidified atmosphere at 37° C. with 5% CO2 in F12 nutrient mixture (Ham) containing 10% dialyzed FBS, 400 µg/ml G418, 100 U/ml penicillin, and 100 µg/ml streptomycin. Medium was removed by aspiration, cells were washed 1× with PBS, and dissociated using PBS-EDTA for […] at room temperature. Cells were then diluted with PBS and pelleted by centrifugation for […] at 1000 rpm. Cells were suspended in assay buffer containing 3000 µM Ro-20-1724 (Sigma, St. Louis, Mo.), a phosphodiesterase inhibitor. Cells were seeded using a microplate dispenser at a density of 3,750 cells/well in a volume of 5 µl onto 384 well white wall/opaque bottom, small volume plates (Greiner Bio One, Monroe, N.C.).
Compound plates for cAMP assays were prepared at 8 mM in 100% DMSO and diluted in assay buffer to the appropriate test concentrations. The final in-well concentration of DMSO was 0.5%. Compounds were tested in duplicate wells using a range of twelve concentrations. […]
Homogeneous time-resolved fluorescence (HTRF) (cAMP dynamic 2 kit; Cisbio, Bedford, Mass.) was used to measure the formation of 3′,5′-cyclic adenosine monophosphate (cAMP) per the manufacturer's instructions. HTRF signal was measured at 620 and 665 nm using an EnVision Multilabel Plate Reader (PerkinElmer). […]
For `NCCc1c[nH]c2ccc(O)cc12` [5-HT, 5-hydroxytryptamine], the “EC80 of 5-HT” value was 0.015 µM.
